Test results as given in ChEMBL document CHEMBL1148761, “2-aroylindoles and 2-aroylbenzofurans with N-hydroxyacrylamide substructures as a novel series of rationally designed histone deacetylase inhibitors” (J Med Chem, 2007).
Each block holds one compound with its values, some of them ahead of it. Calls of active or inactive are those of the source. The rule behind the calls is not given here.

What was measured:
Histone deacetylase 1 = Histone deacetylase 1 (Homo sapiens, UniProt Q13547)
Description: Inhibition of recombinant HDAC1 in HeLa cells

HeLa = experiment: Cytotoxicity against HeLa cells; type: functional, cell-based; conditions: Homo sapiens
Histone deacetylase [1] = experiment: Inhibition of HDAC in HeLa cells; type: cell-based, Homo sapiens
Histone deacetylase [2] = experiment: Inhibition of HDAC in HeLa cells assessed as induction of human histone H3 hyperacetylation; type: cell-based
NCI-H460 = experiment: Cytotoxicity against human NCI H460 cells; type: functional, cell-based
Histone deacetylase 3 = Histone deacetylase 3 (Homo sapiens, UniProt O15379); experiment: Inhibition of recombinant HDAC3
Histone deacetylase 3, sequence (O15379 whole entry): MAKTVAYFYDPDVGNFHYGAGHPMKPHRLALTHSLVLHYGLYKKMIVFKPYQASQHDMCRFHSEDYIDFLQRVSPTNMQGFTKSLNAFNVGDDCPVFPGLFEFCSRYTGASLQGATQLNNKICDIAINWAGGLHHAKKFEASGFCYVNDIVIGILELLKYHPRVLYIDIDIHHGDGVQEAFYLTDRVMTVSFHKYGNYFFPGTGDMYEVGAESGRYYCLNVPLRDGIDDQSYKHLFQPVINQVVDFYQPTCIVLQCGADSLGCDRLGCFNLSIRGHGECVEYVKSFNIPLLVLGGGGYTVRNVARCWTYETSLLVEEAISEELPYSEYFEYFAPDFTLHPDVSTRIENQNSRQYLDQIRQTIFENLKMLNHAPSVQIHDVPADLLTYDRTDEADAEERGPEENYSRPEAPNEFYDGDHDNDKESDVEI

SK-OV-3 = experiment: Cytotoxicity against human SK-OV-3 cells; type: functional, cell-based
Histone deacetylase 8 = Histone deacetylase 8 (Homo sapiens, UniProt Q9BY41); experiment: Inhibition of recombinant HDAC8
Histone deacetylase 8, sequence (Q9BY41 whole entry): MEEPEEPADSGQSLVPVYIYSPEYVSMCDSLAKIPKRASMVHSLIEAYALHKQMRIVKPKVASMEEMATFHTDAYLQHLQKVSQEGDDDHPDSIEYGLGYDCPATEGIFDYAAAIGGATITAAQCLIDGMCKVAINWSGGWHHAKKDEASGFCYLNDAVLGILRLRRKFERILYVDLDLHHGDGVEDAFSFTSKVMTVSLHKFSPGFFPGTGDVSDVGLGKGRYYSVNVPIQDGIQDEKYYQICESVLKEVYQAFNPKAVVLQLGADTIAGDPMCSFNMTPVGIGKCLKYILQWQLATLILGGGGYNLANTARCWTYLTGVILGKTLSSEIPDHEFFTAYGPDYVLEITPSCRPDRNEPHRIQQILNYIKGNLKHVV

[3] = Cytotoxicity against human U87MG cells; type: functional, cell-based, U-87MG ATCC; conditions: U-87 MG
A2780 = experiment: Cytotoxicity against human A2780 cells; type: functional, cell-based
MDA-MB-231 = experiment: Cytotoxicity against human MDA-MB-231cells; type: functional, cell-based
cells = type: functional, cell-based; conditions: Homo sapiens, WM 266-4
Description: Cytotoxicity against human WM 266-4 cells

NCI = experiment: Cytotoxicity against human NCI H69 cells; type: functional, cell-based
[4] = Cytotoxicity against human Hec-1-A cells; type: functional, cell-based
EOL1 = experiment: Cytotoxicity against human EOL1cells; type: functional, cell-based
A-431 = experiment: Cytotoxicity against human A431 cells; type: functional, cell-based
CAL-27 = experiment: Cytotoxicity against human Cal27 cells; type: functional, cell-based
549 = experiment: Inhibition of histone-H3S phosphorylation in […] cells at 10 uM; type: cell-based
HCT-116 = experiment: Cytotoxicity against human HCT116 cells; type: functional, cell-based
PC-3 = experiment: Cytotoxicity against human PC3 cells; type: functional, cell-based
A549 [5] = experiment: Cytotoxicity against human A549 cells; type: functional, cell-based
A549 [6] = experiment: Induction of human histone H3 hyperacetylation in A549 cells at 1 to 3 uM; type: functional, cell-based
[7] = Cytotoxicity against human non-proliferating RKOp21 cells; type: functional, cell-based
[8] = Cytotoxicity against human proliferating RKOp21 cells; type: functional, cell-based
SK-BR-3 = experiment: Cytotoxicity against human SKBR3 cells; type: functional, cell-based
ASPC1 = experiment: Cytotoxicity against human AsPC1 cells; type: functional, cell-based
RKO [9] = experiment: Induction of human histone H3 hyperacetylation in RKO cells at 1 to 3 uM; type: functional, cell-based
CCRF-CEM [10] = experiment: Cytotoxicity against human CCRF-CEM cells; type: functional, cell-based
MDA-MB-468 = experiment: Cytotoxicity against human MDA-MB-468 cells; type: functional, cell-based
A549 [11] = experiment: Induction of apoptosis in A549 cells at 10 uM; type: functional, cell-based; conditions: Homo sapiens
CCRF-CEM [12] = experiment: Cytotoxicity against vincristine resistant human CCRF-CEM cells; type: functional, cell-based
HCT-15 = experiment: Cytotoxicity against human HCT15 cells; type: functional, cell-based
MCF7 = experiment: Cytotoxicity against human MCF7 cells; type: functional, cell-based
SAOS-2 = experiment: Cytotoxicity against human Saos2 cells; type: functional, cell-based
RKO [13] = experiment: Inhibition of histone-H3S phosphorylation in human RKO cells at 10 uM; type: cell-based
K562 = experiment: Cytotoxicity against human K562 cells; type: functional, cell-based

Histone deacetylase 1, sequence (Q13547 whole entry): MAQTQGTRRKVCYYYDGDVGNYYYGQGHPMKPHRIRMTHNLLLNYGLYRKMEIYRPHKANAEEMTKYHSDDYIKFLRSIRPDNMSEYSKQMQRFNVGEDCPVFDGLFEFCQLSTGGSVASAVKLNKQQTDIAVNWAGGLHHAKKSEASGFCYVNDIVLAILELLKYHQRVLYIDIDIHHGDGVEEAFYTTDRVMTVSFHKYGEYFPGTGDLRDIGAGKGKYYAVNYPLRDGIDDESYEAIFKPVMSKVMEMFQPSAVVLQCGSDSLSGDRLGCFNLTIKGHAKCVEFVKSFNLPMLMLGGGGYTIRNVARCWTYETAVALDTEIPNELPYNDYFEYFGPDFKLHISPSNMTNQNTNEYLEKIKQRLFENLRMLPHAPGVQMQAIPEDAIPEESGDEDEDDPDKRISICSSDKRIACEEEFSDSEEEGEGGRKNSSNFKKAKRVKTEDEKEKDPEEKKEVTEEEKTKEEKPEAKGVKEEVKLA

SMILES: O=C(/C=C/c1cccc(C(=O)c2cc3ccccc3n2S(=O)(=O)c2ccccc2)c1)NO
- IC50 (Histone deacetylase 1): 89 nM
- IC50 (HeLa): 1730 nM
- IC50 (Histone deacetylase [1]): 34 nM
- EC50 (Histone deacetylase [2]): 1000 nM

SMILES: O=C(/C=C/c1cccc(C(=O)c2cc3ccccc3o2)c1)NO
- IC50 (NCI-H460): 250 nM
- IC50 (Histone deacetylase 3): 79 nM
- IC50 (SK-OV-3): 740 nM
- IC50 (Histone deacetylase 8): 79 nM
- IC50 [3]: 1100 nM
- IC50 (A2780): 350 nM
- IC50 (MDA-MB-231): 730 nM
- IC50 (cells): 310 nM
- IC50 (NCI): 190 nM
- IC50 [4]: 470 nM
- IC50 (Histone deacetylase 1): 52 nM
- IC50 (EOL1): 49 nM
- IC50 (A-431): 590 nM
- IC50 (HeLa): 680 nM
- IC50 (CAL-27): 660 nM
- Activity 549: Active
- IC50 (HCT-116): 360 nM
- IC50 (PC-3): 160 nM
- IC50 (A549 [5]): 770 nM
- Activity (A549 [6]): Active
- IC50 [7]: 3690 nM
- IC50 [8]: 960 nM
- IC50 (SK-BR-3): 310 nM
- IC50 (ASPC1): 3500 nM
- IC50 (Histone deacetylase [1]): 57 nM
- Activity (RKO [9]): Active
- IC50 (CCRF-CEM [10]): 180 nM
- IC50 (MDA-MB-468): 500 nM
- Activity (A549 [11]): Active
- IC50 (CCRF-CEM [12]): 240 nM
- EC50 (Histone deacetylase [2]): 290 nM
- IC50 (HCT-15): 740 nM
- IC50 (MCF7): 1300 nM
- IC50 (SAOS-2): 920 nM
- Activity (RKO [13]): Active
- IC50 (K562): 150 nM

SMILES: O=C(CCCCCCC(=O)Nc1ccccc1)NO [VORINOSTAT]
- IC50 (SK-OV-3): 2200 nM
- IC50 (MDA-MB-231): 2200 nM
- IC50 (SAOS-2): 2300 nM

SMILES: O=C(/C=C/c1cccc(C(=O)c2cc3ccccc3[nH]2)c1)NO
- IC50 (NCI-H460): 260 nM
- IC50 (Histone deacetylase 3): 50 nM
- IC50 (SK-OV-3): 900 nM
- IC50 (Histone deacetylase 8): 32 nM
- IC50 [3]: 1000 nM
- IC50 (A2780): 340 nM
- IC50 (MDA-MB-231): 900 nM
- IC50 (cells): 310 nM
- IC50 (NCI): 330 nM
- IC50 [4]: 620 nM
- IC50 (Histone deacetylase 1): 31 nM
- IC50 (EOL1): 73 nM
- IC50 (A-431): 600 nM
- IC50 (HeLa): 850 nM
- IC50 (CAL-27): 750 nM
- Activity 549: Active
- IC50 (HCT-116): 360 nM
- IC50 (PC-3): 210 nM
- IC50 (A549 [5]): 970 nM
- Activity (A549 [6]): Active
- IC50 [7]: 2570 nM
- IC50 [8]: 1050 nM
- IC50 (SK-BR-3): 530 nM
- IC50 (ASPC1): 3900 nM
- IC50 (Histone deacetylase [1]): 39 nM
- Activity (RKO [9]): Active
- IC50 (CCRF-CEM [10]): 200 nM
- IC50 (MDA-MB-468): 550 nM
- Activity (A549 [11]): Active
- IC50 (CCRF-CEM [12]): 250 nM
- EC50 (Histone deacetylase [2]): 1300 nM
- IC50 (HCT-15): 770 nM
- IC50 (MCF7): 1900 nM
- IC50 (SAOS-2): 1000 nM
- Activity (RKO [13]): Active
- IC50 (K562): 170 nM

SMILES: COc1cc(C(=O)c2cc3cc(/C=C/C(=O)NO)ccc3o2)cc(OC)c1OC
- IC50 (Histone deacetylase 1): 1100 nM
- IC50 (HeLa): 5770 nM
- IC50 (Histone deacetylase [1]): 1000 nM
- EC50 (Histone deacetylase [2]): 7500 nM

SMILES: COc1ccc2[nH]c(C(=O)c3ccc(/C=C/C(=O)NO)cc3)cc2c1
- IC50 (Histone deacetylase 1): 320 nM
- IC50 (HeLa): 3440 nM
- IC50 (Histone deacetylase [1]): 280 nM
- EC50 (Histone deacetylase [2]): 4270 nM

SMILES: O=C(/C=C/c1ccc(C(=O)c2cc3ccccc3n2S(=O)(=O)c2ccccc2)cc1)NO
- IC50 (Histone deacetylase 1): 690 nM
- IC50 (HeLa): 5420 nM
- IC50 (Histone deacetylase [1]): 270 nM
- EC50 (Histone deacetylase [2]): 5700 nM

The next lines start with results.

- IC50 (Histone deacetylase 1): 880 nM
- IC50 (Histone deacetylase [1]): 260 nM
- EC50 (Histone deacetylase [2]): 6900 nM
SMILES: COc1ccc2c(c1)cc(C(=O)c1ccc(/C=C/C(=O)NO)cc1)n2S(=O)(=O)c1ccccc1
- IC50 (HeLa): 5420 nM

- IC50 (Histone deacetylase 1): 1200 nM
- IC50 (Histone deacetylase [1]): 830 nM
- EC50 (Histone deacetylase [2]): 2650 nM
SMILES: O=C(/C=C/c1ccc2oc(C(=O)c3ccccc3)cc2c1)NO
- IC50 (HeLa): 5610 nM

- IC50 (Histone deacetylase 1): 200 nM
- IC50 (Histone deacetylase [1]): 90 nM
- EC50 (Histone deacetylase [2]): 2670 nM
SMILES: O=C(/C=C/c1ccc2c(c1)cc(C(=O)c1ccccc1)n2S(=O)(=O)c1ccccc1)NO
- IC50 (HeLa): 2880 nM

- IC50 (Histone deacetylase 1): 410 nM
- IC50 (Histone deacetylase [1]): 310 nM
- EC50 (Histone deacetylase [2]): 2970 nM
SMILES: O=C(/C=C/c1ccc(C(=O)c2cc3ccccc3[nH]2)cc1)NO
- IC50 (HeLa): 4750 nM

- IC50 (Histone deacetylase 1): 300 nM
- IC50 (Histone deacetylase [1]): 330 nM
- EC50 (Histone deacetylase [2]): 2570 nM
SMILES: COc1cccc(C(=O)c2cc3cc(/C=C/C(=O)NO)ccc3[nH]2)c1
- IC50 (HeLa): 2960 nM

- IC50 (Histone deacetylase 1): 250 nM
- IC50 (Histone deacetylase [1]): 340 nM
- EC50 (Histone deacetylase [2]): 3770 nM
SMILES: O=C(/C=C/c1ccc2[nH]c(C(=O)c3ccccc3)cc2c1)NO
- IC50 (HeLa): 3970 nM

- IC50 (Histone deacetylase 1): 230 nM
- IC50 (Histone deacetylase [1]): 120 nM
- EC50 (Histone deacetylase [2]): 2780 nM
SMILES: COc1cccc(C(=O)c2cc3cc(/C=C/C(=O)NO)ccc3n2S(=O)(=O)c2ccccc2)c1
- IC50 (HeLa): 3340 nM

- IC50 (Histone deacetylase 1): 520 nM
- IC50 (Histone deacetylase [1]): 450 nM
- EC50 (Histone deacetylase [2]): 1100 nM
SMILES: O=C(/C=C/c1ccc(C(=O)c2cc3ccccc3o2)cc1)NO
- IC50 (HeLa): 2600 nM

- IC50 (Histone deacetylase 1): 950 nM
- IC50 (Histone deacetylase [1]): 650 nM
- EC50 (Histone deacetylase [2]): 4100 nM
SMILES: COc1cccc(C(=O)c2cc3cc(/C=C/C(=O)NO)ccc3o2)c1
- IC50 (HeLa): 4110 nM
